Data: patent publication US9079902B2, “Heteroaryl sodium channel inhibitors” (AMGEN INC., priority 2011, dated 2015)
pIC50: −log10 of the molar value. Structures can show the parent of a compound that is named as a salt.

Experiments:
Nav 1.5 = Nav 1.5 (Homo sapiens (Human), UniProt Q14524); test: Nav 1.5 in vitro assay (IonWorks Quattro population patch-clamp); format: cell-based; details: 293 cells stably transfected with Nav 1.5; 26th pulse to -20 mV, 5 Hz
Experimental: (§1) Nav 1.7 and Nav 1.5 In Vitro Assay
(§2) 293 cells stably transfected with either Nav 1.7 or with Nav 1.5 were recorded in population patch-clamp mode with the IonWorks® Quattro automated electrophysiology system in accordance with the manufacturer's specifications (Molecular Devices, LLC, Sunnyvale, Calif.). Sodium channel currents were measured in response to a train of depolarizations that induced successively greater inactivation.
(§3) Cells were held at −110 mV for three seconds (Nav 1.7) or half a second (Nav 1.5) from a holding voltage of −15 mV, then put through a series of 26 pulses of 150 msec duration to −20 mV at a frequency of 5 Hz. Cells were then left unclamped for a period of 3 to 8 minutes while a single concentration of test compound was added. Cells were then reclamped and put through the same voltage protocol. Current at the end of the 26th pulse to −20 mV was subtracted from the peak current evoked by the 26th pulse to −20 mV to correct for leak current. Percent block was calculated for each concentration in duplicate, and IC50 curves were fitted to percent block as a function of concentration.

Nav 1.7 = Nav 1.7 (Homo sapiens (Human), UniProt Q15858); test: Nav 1.7 in vitro assay (IonWorks Quattro population patch-clamp); format: cell-based; details: 293 cells stably transfected with Nav 1.7; for pIC50: 26th pulse to -20 mV, 5 Hz; for inhibition at 4.9 µM: HEK293
Experimental: as §1, §2, §3

Chain of Nav 1.7 (Q15858 whole entry): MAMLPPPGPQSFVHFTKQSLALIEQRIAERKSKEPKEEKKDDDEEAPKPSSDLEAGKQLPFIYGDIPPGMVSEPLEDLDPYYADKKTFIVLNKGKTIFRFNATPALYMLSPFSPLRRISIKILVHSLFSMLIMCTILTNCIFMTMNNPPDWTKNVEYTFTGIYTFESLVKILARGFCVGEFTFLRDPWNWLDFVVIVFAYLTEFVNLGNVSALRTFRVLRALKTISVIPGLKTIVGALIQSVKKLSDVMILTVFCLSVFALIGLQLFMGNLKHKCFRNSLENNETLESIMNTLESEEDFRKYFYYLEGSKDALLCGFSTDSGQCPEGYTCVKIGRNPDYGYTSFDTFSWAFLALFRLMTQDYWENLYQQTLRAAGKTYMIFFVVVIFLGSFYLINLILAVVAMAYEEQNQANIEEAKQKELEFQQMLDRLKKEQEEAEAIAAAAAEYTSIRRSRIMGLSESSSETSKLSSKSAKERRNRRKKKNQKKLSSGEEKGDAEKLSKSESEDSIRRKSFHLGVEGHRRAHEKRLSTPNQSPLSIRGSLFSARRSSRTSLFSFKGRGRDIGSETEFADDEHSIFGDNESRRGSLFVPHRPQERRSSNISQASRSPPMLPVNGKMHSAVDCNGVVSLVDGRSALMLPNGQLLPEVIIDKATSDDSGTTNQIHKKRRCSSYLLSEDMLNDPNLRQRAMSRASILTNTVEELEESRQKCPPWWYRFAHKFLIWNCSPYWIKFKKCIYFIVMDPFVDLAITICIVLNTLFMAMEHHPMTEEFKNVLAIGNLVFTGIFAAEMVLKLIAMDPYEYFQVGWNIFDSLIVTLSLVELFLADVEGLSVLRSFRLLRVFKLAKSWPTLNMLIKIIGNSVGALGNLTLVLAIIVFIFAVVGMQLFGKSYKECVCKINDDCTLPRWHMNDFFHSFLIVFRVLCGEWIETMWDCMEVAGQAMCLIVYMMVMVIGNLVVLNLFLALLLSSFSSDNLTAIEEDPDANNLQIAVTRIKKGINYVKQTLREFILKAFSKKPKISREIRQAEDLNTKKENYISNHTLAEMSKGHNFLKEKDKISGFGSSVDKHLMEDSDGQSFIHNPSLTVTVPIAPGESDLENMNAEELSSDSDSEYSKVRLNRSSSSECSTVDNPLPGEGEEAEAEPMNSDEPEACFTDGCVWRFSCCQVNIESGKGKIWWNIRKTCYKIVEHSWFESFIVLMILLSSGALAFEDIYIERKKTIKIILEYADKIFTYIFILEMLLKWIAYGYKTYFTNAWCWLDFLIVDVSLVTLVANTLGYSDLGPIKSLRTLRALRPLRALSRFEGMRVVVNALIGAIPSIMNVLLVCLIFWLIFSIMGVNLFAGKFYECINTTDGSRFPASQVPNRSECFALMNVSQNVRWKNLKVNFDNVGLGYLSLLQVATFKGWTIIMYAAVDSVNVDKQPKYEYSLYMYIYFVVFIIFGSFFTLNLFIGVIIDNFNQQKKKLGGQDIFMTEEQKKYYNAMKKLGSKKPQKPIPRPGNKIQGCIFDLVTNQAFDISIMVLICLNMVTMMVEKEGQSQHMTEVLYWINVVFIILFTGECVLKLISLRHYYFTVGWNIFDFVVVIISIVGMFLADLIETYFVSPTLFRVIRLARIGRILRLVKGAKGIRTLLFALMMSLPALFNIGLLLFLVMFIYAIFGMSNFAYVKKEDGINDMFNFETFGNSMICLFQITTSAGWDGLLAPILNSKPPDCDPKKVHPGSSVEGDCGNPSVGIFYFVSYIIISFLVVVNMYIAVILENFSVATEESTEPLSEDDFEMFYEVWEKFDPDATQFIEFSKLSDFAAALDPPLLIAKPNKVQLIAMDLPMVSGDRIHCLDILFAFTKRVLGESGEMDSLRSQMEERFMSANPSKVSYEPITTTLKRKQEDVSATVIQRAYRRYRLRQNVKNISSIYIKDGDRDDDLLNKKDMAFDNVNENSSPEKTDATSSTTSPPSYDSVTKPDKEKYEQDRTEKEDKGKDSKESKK
Chain of Nav 1.5 (Q14524 whole entry): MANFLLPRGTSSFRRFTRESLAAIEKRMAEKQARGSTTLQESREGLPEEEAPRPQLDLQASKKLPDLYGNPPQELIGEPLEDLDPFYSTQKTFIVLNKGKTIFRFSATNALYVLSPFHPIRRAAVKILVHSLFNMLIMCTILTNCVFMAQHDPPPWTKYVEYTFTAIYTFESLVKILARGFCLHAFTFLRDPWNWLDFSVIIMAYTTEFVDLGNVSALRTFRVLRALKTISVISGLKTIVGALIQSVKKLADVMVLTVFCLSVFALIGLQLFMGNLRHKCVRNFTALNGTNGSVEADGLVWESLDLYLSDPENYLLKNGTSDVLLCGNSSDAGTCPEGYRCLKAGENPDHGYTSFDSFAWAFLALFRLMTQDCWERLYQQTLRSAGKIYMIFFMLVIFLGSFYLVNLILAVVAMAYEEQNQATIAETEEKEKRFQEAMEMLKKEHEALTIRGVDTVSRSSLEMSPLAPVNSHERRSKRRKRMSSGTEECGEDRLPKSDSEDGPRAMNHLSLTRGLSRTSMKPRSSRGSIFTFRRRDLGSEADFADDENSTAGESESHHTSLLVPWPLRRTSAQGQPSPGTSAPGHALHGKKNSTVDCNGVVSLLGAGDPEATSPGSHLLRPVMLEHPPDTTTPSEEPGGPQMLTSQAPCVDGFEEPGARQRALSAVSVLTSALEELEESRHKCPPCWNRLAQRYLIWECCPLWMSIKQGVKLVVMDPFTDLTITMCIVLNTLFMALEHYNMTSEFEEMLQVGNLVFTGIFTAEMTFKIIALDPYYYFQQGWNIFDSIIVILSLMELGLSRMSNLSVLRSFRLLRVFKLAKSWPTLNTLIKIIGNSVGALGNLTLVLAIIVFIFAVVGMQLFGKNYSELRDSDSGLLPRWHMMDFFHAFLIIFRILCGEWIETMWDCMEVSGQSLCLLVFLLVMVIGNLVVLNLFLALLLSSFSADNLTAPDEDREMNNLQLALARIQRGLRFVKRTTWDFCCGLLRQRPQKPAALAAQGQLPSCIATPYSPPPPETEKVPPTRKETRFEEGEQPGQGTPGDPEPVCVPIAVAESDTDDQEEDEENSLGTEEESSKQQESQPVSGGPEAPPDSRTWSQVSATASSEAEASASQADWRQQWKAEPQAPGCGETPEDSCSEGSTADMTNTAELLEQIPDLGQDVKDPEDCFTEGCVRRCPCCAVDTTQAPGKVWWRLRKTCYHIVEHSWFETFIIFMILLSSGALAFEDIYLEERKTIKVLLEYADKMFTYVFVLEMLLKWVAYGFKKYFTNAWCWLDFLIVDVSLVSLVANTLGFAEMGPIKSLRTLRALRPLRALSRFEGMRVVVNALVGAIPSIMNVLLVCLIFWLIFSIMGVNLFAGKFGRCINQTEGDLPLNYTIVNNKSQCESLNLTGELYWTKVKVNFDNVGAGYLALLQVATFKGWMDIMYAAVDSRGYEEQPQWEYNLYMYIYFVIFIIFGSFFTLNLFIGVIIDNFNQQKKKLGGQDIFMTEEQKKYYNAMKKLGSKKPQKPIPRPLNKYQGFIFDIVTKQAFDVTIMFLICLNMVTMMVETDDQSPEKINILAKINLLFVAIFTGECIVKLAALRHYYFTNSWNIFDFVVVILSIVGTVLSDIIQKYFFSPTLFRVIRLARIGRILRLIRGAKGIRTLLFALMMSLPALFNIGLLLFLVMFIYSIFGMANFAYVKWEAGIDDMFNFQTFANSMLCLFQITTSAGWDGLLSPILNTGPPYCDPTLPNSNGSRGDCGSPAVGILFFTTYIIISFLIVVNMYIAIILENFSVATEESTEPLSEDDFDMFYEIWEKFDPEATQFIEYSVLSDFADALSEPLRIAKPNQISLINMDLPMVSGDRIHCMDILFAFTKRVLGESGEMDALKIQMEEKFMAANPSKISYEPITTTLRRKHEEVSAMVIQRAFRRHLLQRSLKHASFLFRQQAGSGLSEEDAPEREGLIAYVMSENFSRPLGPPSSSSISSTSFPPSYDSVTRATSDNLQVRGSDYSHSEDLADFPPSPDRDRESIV

Row | pIC50 (Nav 1.7) | inhibition at 4.9 µM (Nav 1.7) | SMILES | pIC50 (Nav 1.5)
1 |  |  | Cn1cc(-c2ccccc2C(F)(F)F)c2ccc(S(=O)(=O)Nc3ncns3)cc21 [Example 44, 1-Methyl-N-(1,2,4-Thiadiazol-5-yl)-3-(2-(Trifluoromethyl)Phenyl)-1H-Indole-6-Sulfonamide] | < 5.00
2 | 5.95 |  | Cn1nccc1-c1cc(C(F)(F)F)ccc1-n1cnc2cc(S(=O)(=O)Nc3ncns3)ccc21 [Example 63, 1-(2-(1-Methyl-1H-Pyrazol-5-Yl)-4-(Trifluoromethyl)Phenyl)-N-(1,2,4-Thiadiazol-5-Yl)-1H-Benzo[D]Imidazole-5-Sulfonamide] | < 5.00
3 |  | 20.5% | Cn1cc(-c2cnn(C3CC3)c2)c2ccc(S(=O)(=O)Nc3ncns3)cc21 [Example 55, 3-(1-Cyclopropyl-1H-Pyrazol-4-Yl)-1-Methyl-N-(1,2,4-Thiadiazol-5-Yl)-1H-Indole-6-Sulfonamide] | < 5.00
4 | 6.26 |  | Cn1cc(-c2ccc(C(F)(F)F)cc2C#N)c2ccc(S(=O)(=O)Nc3ncns3)cc21 [Example 16, 3-(2-Cyano-4-(Trifluoromethyl)Phenyl)-1-Methyl-N-(1,2,4-Thiadiazol-5-yl)-1H-Indole-6-Sulfonamide] | < 5.00
5 | 5.85 |  | Cn1cc(-c2ccc(C(F)(F)F)cc2C2=CCNCC2)c2ccc(S(=O)(=O)Nc3cscn3)cc21 [Example 66, 1-Methyl-3-(2-(1,2,3,6-Tetrahydropyridin-4-Yl)-4-(Trifluoromethyl)Phenyl)-N-(Thiazol-4-Yl)-1H-Indole-6-Sulfonamide] | < 5.00
6 |  |  | COc1cc(F)ccc1-c1cn(C)c2cc(S(=O)(=O)Nc3ncns3)ccc12 [Example 28, 3-(4-FLUORO-2-METHOXYPHENYL)-1-METHYL-N-(1,2,4-Thiadiazol-5-yl)-1H-Indole-6-Sulfonamide] | < 5.00
7 | 6.60 |  | Cn1nccc1-c1cc(Cl)ccc1-c1cn(C)c2cc(S(=O)(=O)Nc3ncns3)ccc12 [Example 2, 3-(4-Chloro-2-(1-Methyl-1H-Pyrazol-5-yl)Phenyl)-1-Methyl-N-(1,2,4-Thiadiazol-5-yl)-1H-Indole-6-Sulfonamide] | < 5.00
8 | 5.04 |  | Cn1cc(-c2cc(Br)cc(C(F)(F)F)c2)c2ccc(S(=O)(=O)Nc3ncns3)cc21 [Example 17, 3-(3-Bromo-5-(Trifluoromethyl)Phenyl)-1-Methyl-N-(1,2,4-Thiadiazol-5-yl)-1H-Indole-6-Sulfonamide] | < 5.00
9 |  | 23.3% | Cn1cc(-c2ccc(C(F)(F)F)cc2)c2ccc(S(=O)(=O)Nc3ncns3)cc21 [Example 57, 1-Methyl-N-(1,2,4-Thiadiazol-5-Yl)-3-(4-(Trifluoromethyl)Phenyl)-1H-Indole-6-Sulfonamide] | < 5.00
10 | 6.58 |  | Cn1cc(-c2ccc(C(F)(F)F)cc2-c2ccn(C3CNC3)n2)c2ccc(S(=O)(=O)Nc3ncns3)cc21 [Example 19, 3-(2-(1-(Azetidin-3-yl)-1H-Pyrazol-3-yl)-4-(Trifluoromethyl)Phenyl)-1-Methyl-N-(1,2,4-Thiadiazol-5-yl)-1H-Indole-6-Sulfonamide Hydrochloride] | < 5.00
11 | 6.45 |  | COC(=O)n1cc(-c2ccc(C(F)(F)F)cc2-c2ccnn2C)c2ccc(S(=O)(=O)Nc3ncns3)cc21 [Example 6, Methyl 6-(N-(1,2,4-Thiadiazol-5-yl)Sulfamoyl)-3-(2-(1-Methyl-1H-Pyrazol-5-yl)-4-(Trifluoromethyl)Phenyl)-1H-Indole-1-Carboxylate] | < 5.00
12 |  |  | COc1ccc(-c2cn(C)c3cc(S(=O)(=O)Nc4ncns4)ccc23)c(Cl)c1 [Example 41, 3-(2-Chloro-4-Methoxyphenyl)-1-Methyl-N-(1,2,4-Thiadiazol-5-yl)-1H-Indole-6-Sulfonamide] | < 5.00
13 |  |  | Cc1noc(C)c1-c1cn(C)c2cc(S(=O)(=O)Nc3ncns3)ccc12 [Example 42, 3-(3,5-Dimethylisoxazol-4-yl)-1-Methyl-N-(1,2,4-Thiadiazol-5-yl)-1H-Indole-6-Sulfonamide] | < 5.00
14 |  |  | Cn1cc(-c2ccc(Br)cc2C(F)(F)F)c2ccc(S(=O)(=O)Nc3ncns3)cc21 [Example 43, 3-(4-Bromo-2-(Trifluoromethyl)Phenyl)-1-Methyl-N-(1,2,4-Thiadiazol-5-yl)-1H-Indole-6-Sulfonamide] | < 5.00
15 |  |  | Cn1cc(-c2cccc(C(F)(F)F)c2)c2ccc(S(=O)(=O)Nc3ncns3)cc21 [Example 48, 1-Methyl-N-(1,2,4-Thiadiazol-5-yl)-3-(3-(Trifluoromethyl)Phenyl)-1H-Indole-6-Sulfonamide] | < 5.00
16 |  |  | Cn1cc(-c2cccc(C#N)c2)c2ccc(S(=O)(=O)Nc3ncns3)cc21 [Example 34, 3-(3-Cyanophenyl)-1-Methyl-N-(1,2,4-Thiadiazol-5-yl)-1H-Indole-6-Sulfonamide] | < 5.00
17 |  |  | Cn1cc(-c2ccc(C#N)c(F)c2)c2ccc(S(=O)(=O)Nc3ncns3)cc21 [Example 31, 3-(4-Cyano-3-Fluorophenyl)-1-Methyl-N-(1,2,4-Thiadiazol-5-yl)-1H-Indole-6-Sulfonamide] | < 5.00

Row | pIC50 (Nav 1.7) | inhibition at 4.9 µM (Nav 1.7) | SMILES | pIC50 (Nav 1.5)
18 |  |  | Cc1cnc(N)c(-c2cn(C)c3cc(S(=O)(=O)Nc4ncns4)ccc23)c1 [Example 45, 3-(2-Amino-5-Methylpyridin-3-yl)-1-Methyl-N-(1,2,4-Thiadiazol-5-yl)-1H-Indole-6-Sulfonamide] | < 5.00
19 |  |  | Cn1cc(-c2cccc3ccccc23)c2ccc(S(=O)(=O)Nc3ncns3)cc21 [Example 37, 1-Methyl-3-(Naphthalen-1-yl)-N-(1,2,4-Thiadiazol-5-yl)-1H-Indole-6-Sulfonamide] | < 5.00
20 |  |  | Cc1cc(C#N)ccc1-c1cn(C)c2cc(S(=O)(=O)Nc3ncns3)ccc12 [Example 46, 3-(4-Cyano-2-Methylphenyl)-1-Methyl-N-(1,2,4-Thiadiazol-5-yl)-1H-Indole-6-Sulfonamide] | < 5.00
21 |  |  | COc1ccc(-c2cn(C)c3cc(S(=O)(=O)Nc4ncns4)ccc23)cc1C(F)(F)F [Example 49, 3-(4-Methoxy-3-(Trifluoromethyl)Phenyl)-1-Methyl-N-(1,2,4-Thiadiazol-5-Yl)-1H-Indole-6-Sulfonamide] | < 5.00
22 |  |  | Cn1cc(-c2cccc(S(C)(=O)=O)c2)c2ccc(S(=O)(=O)Nc3ncns3)cc21 [Example 39, 1-Methyl-3-(3-(Methylsulfonyl)Phenyl)-N-(1,2,4-Thiadiazol-5-yl)-1H-Indole-6-Sulfonamide] | < 5.00
23 |  |  | Cn1nccc1-c1cn(C)c2cc(S(=O)(=O)Nc3ncns3)ccc12 [Example 52, 1-Methyl-3-(1-Methyl-1H-Pyrazol-5-Yl)-N-(1,2,4-Thiadiazol-5-Yl)-1H-Indole-6-Sulfonamide] | < 5.00
24 |  |  | Cn1cc(-c2cccc(OC(F)(F)F)c2)c2ccc(S(=O)(=O)Nc3ncns3)cc21 [Example 33, 1-Methyl-N-(1,2,4-Thiadiazol-5-yl)-3-(3-(Trifluoromethoxy)Phenyl)-1H-Indole-6-Sulfonamide] | < 5.00
25 |  |  | Cn1cc(-c2ccc(C(F)(F)F)c(Cl)c2)c2ccc(S(=O)(=O)Nc3ncns3)cc21 [Example 24, 3-(3-Chloro-4-(Trifluoromethyl)Phenyl)-1-Methyl-N-(1,2,4-Thiadiazol-5-yl)-1H-Indole-6-Sulfonamide] | < 5.00
26 |  |  | COc1cc(OC)cc(-c2cn(C)c3cc(S(=O)(=O)Nc4ncns4)ccc23)c1 [Example 29, 3-(3,5-Dimethoxyphenyl)-1-Methyl-N-(1,2,4-Thiadiazol-5-yl)-1H-Indole-6-Sulfonamide] | < 5.00
27 |  |  | Cn1cc(-c2cccc3ncccc23)c2ccc(S(=O)(=O)Nc3ncns3)cc21 [Example 38, 1-Methyl-3-(Quinolin-5-yl)-N-(1,2,4-Thiadiazol-5-yl)-1H-Indole-6-Sulfonamide] | < 5.00
28 |  |  | Cn1cc(-c2ccc(F)c(C#N)c2)c2ccc(S(=O)(=O)Nc3ncns3)cc21 [Example 30, 3-(3-Cyano-4-Fluorophenyl)-1-Methyl-N-(1,2,4-Thiadiazol-5-yl)-1H-Indole-6-Sulfonamide] | 5.12
29 |  |  | Cn1cc(-c2ccc(OC(F)(F)F)cc2)c2ccc(S(=O)(=O)Nc3ncns3)cc21 [Example 32, 1-Methyl-N-(1,2,4-Thiadiazol-5-yl)-3-(4-(Trifluoromethoxy)Phenyl)-1H-Indole-6-Sulfonamide] | < 5.00
30 |  |  | Cn1cc(-c2ccccc2)c2ccc(S(=O)(=O)Nc3ncns3)cc21 [Example 35, 1-Methyl-3-Phenyl-N-(1,2,4-Thiadiazol-5-yl)-1H-Indole-6-Sulfonamide] | < 5.00
31 |  |  | CN(C)c1cccc(-c2cn(C)c3cc(S(=O)(=O)Nc4ncns4)ccc23)c1 [Example 47, 3-(3-(Dimethylamino)Phenyl)-1-Methyl-N-(1,2,4-Thiadiazol-5-yl)-1H-Indole-6-Sulfonamide] | < 5.00
32 |  |  | COc1ccc(-c2cn(C)c3cc(S(=O)(=O)Nc4ncns4)ccc23)c2ccccc12 [Example 40, 3-(4-Methoxynaphthalen-1-yl)-1-Methyl-N-(1,2,4-Thiadiazol-5-yl)-1H-Indole-6-Sulfonamide] | < 5.00
33 |  |  | COc1ccc(-c2cn(C)c3cc(S(=O)(=O)Nc4ncns4)ccc23)c(OC)c1 [Example 36, 3-(2,4-Dimethoxyphenyl)-1-Methyl-N-(1,2,4-Thiadiazol-5-yl)-1H-Indole-6-Sulfonamide] | < 5.00
